Assay results: PubChem BioAssay AID1745844 (Carcinogenic Potency Database (CPDB), 2022)

System: rodent lifetime carcinogenesis bioassay, tumor incidence TD50
Test: carcinogenic potency in animals, long-term in vivo studies, CPDB compilation (AID 1745844)

Work on `Cn1c(N)nc2c3cccnc3ccc21` yielded a TD50 (monkey, strain Cynomolgus [Macaca fascicularis], both sexes, by gavage, site: any site (literature study), lesion: malignant tumor, dosed 485 weeks, study length 485 weeks) of 0.374 mg/kg/day, a TD50 (monkey, strain Cynomolgus [Macaca fascicularis], both sexes, by gavage, site: liver, lesion: hepatocellular carcinoma, dosed 485 weeks, study length 485 weeks) of 0.374 mg/kg/day and a TD50 (mouse, strain CDF1, females, in feed, site: forestomach, lesion: several types, types named in the paper, dosed 96 weeks, study length 96 weeks) of 62.4 mg/kg/day. The TD50 (mouse, strain CDF1, females, in feed, site: liver, lesion: hepatocellular carcinoma, dosed 96 weeks, study length 96 weeks) was 24.1 mg/kg/day, the TD50 (mouse, strain CDF1, females, in feed, site: liver, lesion: several types, types named in the paper, dosed 96 weeks, study length 96 weeks) was 17.5 mg/kg/day and the TD50 (mouse, strain CDF1, females, in feed, site: lung, lesion: several types, types named in the paper, dosed 96 weeks, study length 96 weeks) was 67.9 mg/kg/day. The TD50 (mouse, strain CDF1, males, in feed, site: forestomach, lesion: several types, types named in the paper, dosed 96 weeks, study length 96 weeks) was 42.3 mg/kg/day, the TD50 (mouse, strain CDF1, males, in feed, site: forestomach, lesion: squamous-cell carcinoma, dosed 96 weeks, study length 96 weeks) was 153 mg/kg/day and the TD50 (mouse, strain CDF1, males, in feed, site: liver, lesion: hepatocellular carcinoma, dosed 96 weeks, study length 96 weeks) was 91.6 mg/kg/day. It also gave a TD50 (mouse, strain CDF1, males, in feed, site: liver, lesion: several types, types named in the paper, dosed 96 weeks, study length 96 weeks) of 48.6 mg/kg/day, a TD50 (mouse, strain CDF1, males, in feed, site: lung, lesion: adenocarcinoma, dosed 96 weeks, study length 96 weeks) of 60.2 mg/kg/day and a TD50 (mouse, strain CDF1, males, in feed, site: lung, lesion: several types, types named in the paper, dosed 96 weeks, study length 96 weeks) of 22.4 mg/kg/day. It also gave a TD50 (rat, strain F344/DuCrj, females, in feed, site: Zymbal's gland, lesion: squamous-cell carcinoma, dosed 72 weeks, study length 72 weeks) of 4.38 mg/kg/day, a TD50 (rat, strain F344/DuCrj, females, in feed, site: clitoral gland, lesion: squamous-cell carcinoma, dosed 72 weeks, study length 72 weeks) of 7.11 mg/kg/day and a TD50 (rat, strain F344/DuCrj, females, in feed, site: large intestine, lesion: adenocarcinoma, dosed 72 weeks, study length 72 weeks) of 19.3 mg/kg/day. The TD50 (rat, strain F344/DuCrj, females, in feed, site: liver, lesion: hepatocellular carcinoma, dosed 72 weeks, study length 72 weeks) was 8.24 mg/kg/day, the TD50 (rat, strain F344/DuCrj, females, in feed, site: oral cavity, lesion: squamous-cell carcinoma, dosed 72 weeks, study length 72 weeks) was 195 mg/kg/day and the TD50 (rat, strain F344/DuCrj, females, in feed, site: skin, lesion: squamous-cell carcinoma, dosed 72 weeks, study length 72 weeks) was 63.2 mg/kg/day. It also gave a TD50 (rat, strain F344/DuCrj, females, in feed, site: small intestine, lesion: adenocarcinoma, dosed 72 weeks, study length 72 weeks) of 195 mg/kg/day, a TD50 (rat, strain F344/DuCrj, males, in feed, site: Zymbal's gland, lesion: squamous-cell carcinoma, dosed 55 weeks, study length 55 weeks) of 0.999 mg/kg/day and a TD50 (rat, strain F344/DuCrj, males, in feed, site: large intestine, lesion: adenocarcinoma, dosed 55 weeks, study length 55 weeks) of 2.34 mg/kg/day. It also gave a TD50 (rat, strain F344/DuCrj, males, in feed, site: liver, lesion: hepatocellular carcinoma, dosed 55 weeks, study length 55 weeks) of 2.08 mg/kg/day, a TD50 (rat, strain F344/DuCrj, males, in feed, site: oral cavity, lesion: squamous-cell carcinoma, dosed 55 weeks, study length 55 weeks) of 44.8 mg/kg/day and a TD50 (rat, strain F344/DuCrj, males, in feed, site: skin, lesion: squamous-cell carcinoma, dosed 55 weeks, study length 55 weeks) of 4.16 mg/kg/day. It also gave a TD50 (rat, strain F344/DuCrj, males, in feed, site: small intestine, lesion: adenocarcinoma, dosed 55 weeks, study length 55 weeks) of 6.45 mg/kg/day, a TD50 (rat, strain Fischer 344, females, in feed, site: Zymbal's gland, lesion: one or several types, types not named, dosed 53 weeks, study length 78 weeks) of 2.26 mg/kg/day and a TD50 (rat, strain Fischer 344, females, in feed, site: liver, lesion: hepatocellular carcinoma, dosed 53 weeks, study length 78 weeks) of 5.06 mg/kg/day. The TD50 (rat, strain Fischer 344, females, in feed, site: lung, lesion: adenoma, dosed 53 weeks, study length 78 weeks) was 16.2 mg/kg/day, the TD50 (rat, strain Fischer 344, females, in feed, site: mammary gland, lesion: one or several types, types not named, dosed 53 weeks, study length 78 weeks) was 3.52 mg/kg/day and the TD50 (rat, strain Fischer 344, females, in feed, site: preputial gland, lesion: one or several types, types not named, dosed 53 weeks, study length 78 weeks) was 3.19 mg/kg/day. The TD50 (rat, strain Fischer 344, females, in feed, site: sebaceous gland, lesion: several types, types named in the paper, dosed 53 weeks, study length 78 weeks) was 32.9 mg/kg/day, the TD50 (rat, strain Fischer 344, males, by gavage, site: Zymbal's gland, lesion: squamous-cell carcinoma, dosed 35 weeks, study length 52 weeks) was 0.287 mg/kg/day and the TD50 (rat, strain Fischer 344, males, by gavage, site: any site (literature study), lesion: several types, types named in the paper, dosed 35 weeks, study length 52 weeks) was 0.287 mg/kg/day. It also gave a TD50 (rat, strain Fischer 344, males, by gavage, site: colon, lesion: adenocarcinoma, dosed 35 weeks, study length 52 weeks) of 0.803 mg/kg/day, a TD50 (rat, strain Fischer 344, males, by gavage, site: liver, lesion: hepatocellular carcinoma, dosed 35 weeks, study length 52 weeks) of 0.579 mg/kg/day and a TD50 (rat, strain Fischer 344, males, by gavage, site: skin, lesion: squamous-cell carcinoma, dosed 35 weeks, study length 52 weeks) of 0.579 mg/kg/day. For the same compound, the TD50 (rat, strain Fischer 344, males, by gavage, site: small intestine, lesion: adenocarcinoma, dosed 35 weeks, study length 52 weeks) was 1.55 mg/kg/day, the TD50 (rat, strain Fischer 344, males, in feed, site: Zymbal's gland, lesion: one or several types, types not named, dosed 53 weeks, study length 63 weeks) was 1.2 mg/kg/day and the TD50 (rat, strain Fischer 344, males, in feed, site: colon, lesion: one or several types, types not named, dosed 53 weeks, study length 63 weeks) was 10.5 mg/kg/day. For the same compound, the TD50 (rat, strain Fischer 344, males, in feed, site: liver, lesion: hepatocellular carcinoma, dosed 53 weeks, study length 63 weeks) was 10.5 mg/kg/day, the TD50 (rat, strain Fischer 344, males, in feed, site: lung, lesion: several types, types named in the paper, dosed 53 weeks, study length 63 weeks) was 27.1 mg/kg/day and the TD50 (rat, strain Fischer 344, males, in feed, site: preputial gland, lesion: one or several types, types not named, dosed 53 weeks, study length 63 weeks) was 6.87 mg/kg/day. The TD50 (rat, strain Fischer 344, males, in feed, site: sebaceous gland, lesion: several types, types named in the paper, dosed 53 weeks, study length 63 weeks) was 0.998 mg/kg/day.
